The supplement of paper PMC11061612

How the values were obtained:
Test in all cases: Bliss excess, mean over the matrix (fraction); higher = more synergy
[1] = test system: C3A (Hepatocellular Carcinoma)
Method in brief: (§1)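 Bliss excess equals the observed combination effect minus the expected value EA + EB − EA·EB, where EA and EB are the effects of each agent alone. Combination Emax is the second-highest inhibition within the matrix. Inhibition was scaled from CellTiter-Glo 2.0 luminescence, with 0 set by vehicle wells and 1 by blank wells, after 72 hours of two-drug dosing of cells plated in 1536-well plates.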

[2] = test system: COR-L95 (Small Cell Lung Carcinoma)
Method in brief: as §1

IGR-1 (Melanoma) = test system: IGR-1 (Melanoma)
Method in brief: as §1

[3] = test system: JiyoyeP-2003 (Burkitt's Lymphoma)
Method in brief: as §1

[4] = test system: KARPAS-1106P (B-Cell Non-Hodgkin's Lymphoma)
Method in brief: as §1

[5] = test system: KARPAS-620 (Plasma Cell Myeloma)
Method in brief: as §1

[6] = test system: KATOIII (Gastric Carcinoma)
Method in brief: as §1

[7] = test system: LS-513 (Colorectal Carcinoma)
Method in brief: as §1

[8] = test system: MFH-ino (Other Solid Carcinomas)
Method in brief: as §1

[9] = test system: NCI-H1299 (Non-Small Cell Lung Carcinoma)
Method in brief: as §1

[10] = test system: NCI-H1694 (Small Cell Lung Carcinoma)
Method in brief: as §1

[11] = test system: NCI-H1781 (Lung Adenocarcinoma)
Method in brief: as §1

[12] = test system: NCI-H1793 (Lung Adenocarcinoma)
Method in brief: as §1

NCI-H2369 (Mesothelioma) = test system: NCI-H2369 (Mesothelioma)
Method in brief: as §1

NCI-H2595 (Mesothelioma) = test system: NCI-H2595 (Mesothelioma)
Method in brief: as §1

[13] = test system: OCI-AML2 (Acute Myeloid Leukemia)
Method in brief: as §1

[14] = test system: SW1783 (Low Grade Glioma)
Method in brief: as §1

[15] = test system: SW1990 (Pancreatic Carcinoma)
Method in brief: as §1

[16] = test system: SW756 (Cervical Carcinoma)
Method in brief: as §1

[17] = test system: TGBC24TKB (Biliary Tract Carcinoma)
Method in brief: as §1

Compound	Bliss excess [1]	Bliss excess [2]	Bliss excess (IGR-1 (Melanoma))	Bliss excess [3]	Bliss excess [4]	Bliss excess [5]	Bliss excess [6]	Bliss excess [7]	Bliss excess [8]	Bliss excess [9]	Bliss excess [10]	Bliss excess [11]	Bliss excess [12]	Bliss excess (NCI-H2369 (Mesothelioma))	Bliss excess (NCI-H2595 (Mesothelioma))	Bliss excess [13]	Bliss excess [14]	Bliss excess [15]	Bliss excess [16]	Bliss excess [17]
COc1nnc2ccc(N3CCC(c4ccc(OCCN5CCN(C)C(=O)[C@H]5C)cc4)CC3)nn12 [AZD5153] + C[C@@H]1COCCN1C2=NC(=NC(=C2)C3(CC3)[S@](=N)(=O)C)C4=C5C=CNC5=NC=C4 [AZD6738] (first compound max 1 µM, 7x7, partner max 10 µM)	0.0348	-0.0357	0.0759	-0.047	-0.0455	-0.0429	-0.0164	-0.0211	-0.0801	-0.0088	0.008	0.0033	0.0127	0.0409	0.0346	-0.0143	0.0235	-0.0424	0.0204	0.0292
C=CCn1c(=O)c2cnc(Nc3ccc(N4CCN(C)CC4)cc3)nc2n1-c1cccc(C(C)(C)O)n1 [AZD1775] + O=C(c1cc(Cc2n[nH]c(=O)c3ccccc23)ccc1F)N1CCN(C(=O)C2CC2)CC1 [Olaparib] (first compound max 1 µM, partner max 10 µM)	-0.0179	-0.101	0.0054	-0.0086	-0.0513	-0.0324	-0.0227	0.0008	-0.0128	-0.0048	-0.036	-0.0451	-0.0145	-0.084	-0.0218	0.0249	-0.0028	-0.0697	-0.0416	-0.0499
CC1(C)CCC(CN2CCN(c3ccc(C(=O)NS(=O)(=O)c4ccc(NCC5CCOCC5)c([N+](=O)[O-])c4)c(Oc4cnc5[nH]ccc5c4)c3)CC2)=C(c2ccc(Cl)cc2)C1 [Venetoclax] + CCN(CCO)CCCOc1ccc2c(Nc3cc(CC(=O)Nc4cccc(F)c4)[nH]n3)ncnc2c1 [AZD2811] (first compound max 1 µM, 7x7, partner max 1 µM)	-0.0359	0.0474	0.0261	0.0467	-0.0125	0.169	-0.0226	-0.0407	-0.0239	-0.0358	0.0477	0.0061	-0.0039	-0.015	-0.0146	0.0892	-0.0192	0.0024	-0.0292	0.005
NC1(C(=O)N[C@@H](CCO)c2ccc(Cl)cc2)CCN(c2ncnc3[nH]ccc23)CC1 [Capivasertib] + CC(C)n1c(=O)n(C)c2cnc3cc(F)c(-c4ccc(OCCCN5CCCCC5)nc4)cc3c21 [AZD1390] (first compound max 10 µM, 7x7, partner max 0.3 µM)	-0.0724	-0.0425	-0.0607	-0.024	-0.0004	-0.0273	-0.118	-0.0511	-0.0771	-0.0362	-0.0081	-0.0696	-0.0745	-0.0104	-0.0609	-0.0448	-0.0625	-0.05	-0.0647	-0.0261
C[C@@H](c1ccc2nccn2c1)n1nnc2ncc(-c3cnn(C)c3)nc21 [Savolitinib] + CC1(C)CCC(CN2CCN(c3ccc(C(=O)NS(=O)(=O)c4ccc(NCC5CCOCC5)c([N+](=O)[O-])c4)c(Oc4cnc5[nH]ccc5c4)c3)CC2)=C(c2ccc(Cl)cc2)C1 [Venetoclax] (first compound max 1 µM, 7x7, partner max 1 µM)	-0.0545	0.0069	-0.0583	-0.0438	-0.0157	-0.0449	-0.0364	-0.0599	-0.0657	-0.0418	-0.0286	-0.0702	-0.0566	-0.058	0.006	-0.0246	-0.0442	-0.0219	-0.0923	-0.0283
Cn1cnc2c(F)c(Nc3ccc(Br)cc3Cl)c(C(=O)NOCCO)cc21 [Selumetinib] + CCN(CCO)CCCOc1ccc2c(Nc3cc(CC(=O)Nc4cccc(F)c4)[nH]n3)ncnc2c1 [AZD2811] (first compound max 10 µM, 7x7, partner max 1 µM)	-0.0272	-0.0075	-0.007	-0.0053	0.0245	0.193	-0.0148	-0.0184	-0.045	-0.0205	0.0136	0.0045	-0.0302	-0.0517	-0.0185	0.0545	-0.0559	-0.0292	-0.008	0.003
CN(CCO)CC[C@H](CSc1ccccc1)Nc1ccc(S(=O)(=O)NC(=O)c2ccc(N3CCC([C@@H](O)c4ccccc4-c4ccc(Cl)cc4)CC3)cc2)cc1S(=O)(=O)C(F)(F)F [AZD4320] + C[C@@H]1COCCN1C2=NC(=NC(=C2)C3(CC3)[S@](=N)(=O)C)C4=C5C=CNC5=NC=C4 [AZD6738] (first compound max 1 µM, 7x7, partner max 10 µM)	-0.016	-0.0234	0.0464	-0.0334	-0.0301	-0.0028	-0.0397	-0.0354	-0.0785	-0.016	0.0238	-0.0005	-0.0272	0.0246	-0.0222	0.0397	-0.106	0.0112	-0.0658	-0.0245
CCN(CCO)CCCOc1ccc2c(Nc3cc(CC(=O)Nc4cccc(F)c4)[nH]n3)ncnc2c1 [AZD2811] + O=C(c1cc(Cc2n[nH]c(=O)c3ccccc23)ccc1F)N1CCN(C(=O)C2CC2)CC1 [Olaparib] (first compound max 1 µM, 7x7, partner max 10 µM)	-0.0495	-0.0526	-0.0059	0.0809	-0.0229	0.0273	-0.0332	-0.0158	-0.0318	-0.0131	0.0406	-0.0293	-0.0264	0.0055	0.0072	-0.0351	-0.0423	-0.0302	-0.0232	-0.0102
Cc1c2c(nn1C)CSCc1cc(n(C)n1)CSc1cc(c3ccccc3c1)OCCCc1c(C(=O)O)n(C)c3c-2c(Cl)ccc13 [AZD5991] + C1CN(CCC1(C(=O)N[C@@H](CCO)C2=CC=C(C=C2)Cl)N)C3=NC=NC4=C3C=CN4 [Capivasertib] (first compound max 1 µM, 7x7, partner max 3 µM)	-0.0318	0.0071	0.0228	0.0371	0.0188	-0.0097	-0.0267	-0.0343	-0.0372	-0.0174	-0.0142	0.0079	0.0258	-0.012	0.0093	0.0385	-0.0145	-0.0314	-0.023	0.0066
Cn1cnc2c(F)c(Nc3ccc(Br)cc3Cl)c(C(=O)NOCCO)cc21 [Selumetinib] + C[C@@H]1COCCN1C2=NC(=NC(=C2)C3(CC3)[S@](=N)(=O)C)C4=C5C=CNC5=NC=C4 [AZD6738] (first compound max 10 µM, 7x7, partner max 10 µM)	0.0471	-0.0778	0.0257	-0.0145	-0.0007	0.0471	-0.0433	0.0046	0.0029	0.0454	-0.0037	-0.0397	-0.0402	-0.0338	-0.0326	0.0141	-0.103	-0.0653	0.0323	0.0704
CC1(C)CCC(CN2CCN(c3ccc(C(=O)NS(=O)(=O)c4ccc(NCC5CCOCC5)c([N+](=O)[O-])c4)c(Oc4cnc5[nH]ccc5c4)c3)CC2)=C(c2ccc(Cl)cc2)C1 [Venetoclax] + C[C@@H](Nc1cc(F)cc(F)c1)c1cc(C(=O)N(C)C)cc2c(=O)cc(N3CCOCC3)oc12 [AZD8186] (first compound max 1 µM, 7x7, partner max 3 µM)	-0.0803	0.095	-0.0471	0.0246	0.0046	-0.0022	-0.0555	-0.0551	-0.053	-0.0492	0.0808	-0.0341	0.0197	-0.0299	-0.0111	-0.0033	-0.0258	-0.0255	-0.0452	-0.0202
NC1(C(=O)N[C@@H](CCO)c2ccc(Cl)cc2)CCN(c2ncnc3[nH]ccc23)CC1 [Capivasertib] + CC(=O)c1c(C)c2cnc(Nc3ccc(N4CCNCC4)cn3)nc2n(C2CCCC2)c1=O [Palbociclib] (first compound max 10 µM, 7x7, partner max 10 µM)	0.0164	-0.0565	-0.0028	0.0203	-0.0168	0.0171	-0.0242	-0.0138	-0.0353	0.0662	-0.0472	-0.0326	-0.0287	0.0133	-0.0248	0.0134	-0.0263	-0.0404	-0.0499	-0.0216
CCN(CCO)CCCOc1ccc2c(Nc3cc(CC(=O)Nc4cccc(F)c4)[nH]n3)ncnc2c1 [AZD2811] + C[C@@H]1COCCN1C2=NC(=NC(=C2)C3(CC3)[S@](=N)(=O)C)C4=C5C=CNC5=NC=C4 [AZD6738] (first compound max 1 µM, 7x7, partner max 10 µM)	-0.0117	-0.0658	0.0315	0.0773	-0.0713	-0.0121	-0.0477	-0.0524	-0.0878	-0.0808	-0.0073	0.0216	-0.0341	-0.0621	-0.0491	-0.0145	-0.0501	-0.0555	-0.0095	-0.0407
CC1(C)CCC(CN2CCN(c3ccc(C(=O)NS(=O)(=O)c4ccc(NCC5CCOCC5)c([N+](=O)[O-])c4)c(Oc4cnc5[nH]ccc5c4)c3)CC2)=C(c2ccc(Cl)cc2)C1 [Venetoclax] + C=CCn1c(=O)c2cnc(Nc3ccc(N4CCN(C)CC4)cc3)nc2n1-c1cccc(C(C)(C)O)n1 [AZD1775] (first compound max 1 µM, partner max 1 µM)	-0.0511	0.001	0.0147	-0.0263	0.0627	0.0191	0.0093	-0.0581	-0.0222	0.0038	0.0226	-0.0767	-0.0007	-0.0134	-0.0316	0.0028	-0.0007	0.0206	-0.0401	-0.0108
